Test results reported in US20180071317A1, “USE OF AGENTS THAT ALTER THE PERITUMORAL ENVIRONMENT FOR THE TREATMENT OF CANCER” (SERVICIO ANDALUZ DE SALUD, priority 2011, published 2018).

Tests used:
[1] = system: human primary fibroblasts (PHF); assay: Marker expression (immunohistochemistry) in human primary fibroblasts with SP alone or with NK1 antagonists; assay type: cell-based; conditions: SP 1 μM + antagonist 1 μM; 48 h;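 note: primary human dermal fibroblasts, immunostained with rabbit polyclonal antibodies against each marker, value is percentage of stained cells among all cells counted in 20 fields at 400× per section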
Description: These PHF were obtained and purified from samples obtained from the dermis of the skin of healthy volunteers as described in De Bari et al (De Bari et al. 2001). Briefly, small pieces of skin dermis were digested in a solution of hyaluronidase (Sigma-Aldrich, USA) at a concentration of 1 mg/ml for 15 minutes at 37° C. and then treated with 6 mg/ml collagenase type IV (Invitrogen) for 2 hours at 37° C. Then, the cells were washed, resuspended in DMEM culture medium with high glucose (Dulbecco's Modified Eagle's Medium, Invitrogen) supplemented with 1% antibiotic-antimycotic (Invitrogen) and 1% pyruvate Sodium (Invitrogen), and seeded in culture dishes at a concentration of 10,000 cells per square centimeter. When the cells reached confluence, adherent cells were detached using 0.5% sterile trypsin (Invitrogen) and used between passages 3 and 9. For tests shown below, the PHF were plated in 24-well plates at a concentration of 25,000 cells per well.
After 48 hours of culture, cells were harvested and paraffin cell-blocks for immunohistochemical analysis were constructed, as previously explained in Example 1.
In immunohistochemical assays the expression of the following markers were studied: TGFα (SAB4502953), TGF1 (SAB4502954), TGFβ2 (SAB4502956), TGFβ3 (SAB4502957), SPARC (HPA002989), MMP-3 (HPA007875) MMP-7 (SAB4501894), MMP-9 (SAB4501896), MMP-11 (SAB4501898), MMP-13 (SAB4501900) and MMP-14 (SAB4501901) using specific antibodies against them. All antibodies used were rabbit polyclonal antibodies obtained from Sigma-Aldrich and were used at a concentration of 1/1000. All experiments were carried out sixfold.
On each of the six sections cell counts were performed in 20 high power fields (400×) through an Olympus microscope (model CX31) to assess the immunostaining. On each of the fields total cell number and number of cells displaying immunostaining were counted, being then the percentage of cells displaying said immunostaining.

mononuclear cells = assay: Marker expression (immunohistochemistry) in mononuclear blood cells with SP alone or with NK1 antagonists; assay type: cell-based, human; conditions: SP 1 μM + antagonist 1 μM; 48 h
Description: Briefly, heparinized blood from healthy donors was centrifuged so as to separate the various components thereof. Red blood cells remained at the bottom of the tube. Above them was a small white layer composed of the white blood cells and above, on top of the tube, the blood plasma. The layer of white cells was distributed in a culture plate of 24 wells by adding in each the same concentration of blood plasma from the same donor, supplemented with 1% antibiotic-antimycotic (Invitrogen). In each well, approximately 1000 cells (PHF) skin from the dermis were further added, obtained as previously described in Example 2. […] After 48 hours of incubation, cells were collected and embedded in paraffin for expression analysis by immunohistochemical techniques (as described in Example 1).
The expression of TGF molecular markers (anti-TGF 2, SAB4502956) and NF-kB (anti-NF-kB, SAB4501992) using specific antibodies against them were analyzed. All antibodies used were rabbit polyclonal antibodies obtained from Sigma Aldrich and were used at a concentration of 1/1000. All experiments were carried out sixfold.

[2] = system: fibroblasts (PHF) co-cultured with tumor cells of human endometrial carcinoma (AN3-CA); assay: Marker expression (IHC) in PHF co-cultured with AN3-CA tumor cells; assay type: cell-based; conditions: co-culture with AN3-CA; SP 1 μM + antagonist 1 μM; 48 h;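 note: cultured in fresh healthy-donor blood plasma with added antibiotic-antimycotic, run in six replicates, values give percent of fibroblasts positive for each marker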
Description: (§1) All cultures were maintained 48 hours, following which the same cells were included in paraffin blocks for subsequent analysis of the expression of different markers by immunohistochemistry (see Example 1). […] All experiments were carried out sixfold. Analyzed markers in fibroblast cells (stromal cells) were: TGF-α, TGF-β1, TGF-β2, TGF-β3, SPARC, MMP-3, MMP-7, MMP-9, MMP-11, MMP-13 and MMP-14.

[3] = system: fibroblasts (PHF) co-cultured with human choriocarcinoma tumor cells (AC-1M32); assay: Marker expression (IHC) in PHF co-cultured with AC-1M32 tumor cells; assay type: cell-based; conditions: co-culture with AC-1M32; SP 1 μM + antagonist 1 μM; 48 h;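 note: Read-out is the percentage of PHF fibroblasts positive for each marker, with cells grown in fresh healthy-donor blood plasma, six replicates, reference being fibroblasts cultured alone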
Description: as §1

[4] = system: fibroblasts (PHF) co-cultured with tumor cells, thyroid carcinoma (reference A-427); assay: Marker expression (IHC) in PHF co-cultured with thyroid carcinoma tumor cells; assay type: cell-based, human; conditions: co-culture with thyroid carcinoma cells; SP 1 μM + antagonist 1 μM; 48 h;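 note: grown in fresh plasma from a healthy human donor, read-out is percent of fibroblasts positive for each marker, compared with fibroblasts cultured alone, run in six replicates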
Description: as §1

[5] = system: fibroblasts (PHF) co-cultured with tumor cells, thyroid carcinoma; assay: as above; assay type: cell-based, human; conditions: co-culture with thyroid carcinoma cells; SP 1 μM + antagonist 1 μM; 48 h
Description: as §1

[6] = system: fibroblasts (PHF) co-cultured with human melanoma tumor cells (MEL-HO1); assay: Marker expression (IHC) in PHF co-cultured with MEL-HO1 tumor cells; assay type: cell-based; conditions: PHF co-cultured with MEL-HO1 + SP + NK1 antagonist;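 note: values are the percentage of fibroblasts positive for each marker, with cultures grown in fresh healthy-donor blood plasma and each experiment run six times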
Description: as §1

[7] = system: fibroblasts (PHF) co-cultivated with tumor cell lymphoblastic leukemia B (SDI); assay: Marker expression (IHC) in PHF co-cultured with SDI tumor cells; assay type: cell-based, human; conditions: PHF co-cultivated with SDI + SP + NK1 antagonist
Description: as §1

[8] = system: fibroblasts of tumors produced by tumor cell line of human melanoma (MEL HO); assay: Marker expression (IHC) in fibroblasts of tumor or peritumoral area, mouse model, MEL HO; assay type: in vivo; conditions: MEL HO tumors in mice, 30 mg/kg/day oral, 7 days
Description: In vitro tests conducted in Example 5 are now carried out in an experimental model in mice in vivo. […] Subsequently, the expression in fibroblasts tumoral and peritumoral area of molecular markers associated with progression and maintenance of tumors: TGF-α, TGF-β1, TGF-β2, TGF-β3, MMP-7, MMP-11, MMP-14 were analyzed by immunohistochemistry.
Were injected with 2×10^7 cells tumors (corresponding, in each case to each of the tumor types as specified in Table 9) in 200 of PBS subcutaneously μl. […] Mice were randomized into two groups when the tumors reached a volume of 75 mm^3 One group was treated with non-peptide receptor antagonists NK1 and the other with placebo 200μ1. […] Tumors and samples of non-neoplastic stromal areas remote from the tumor were halved, formalin fixed (4%) and then were included in paraffin blocks for analysis by immunohistochemistry.
The expression on fibroblast cells obtained in the animal model was analyzed by immunohistochemistry, of the above markers: TGF-α, TGF-β1, TGF-β2, TGF-β3, MMP-7, MMP-1 1, MMP-14MP-14. Tables 32 to 35 depict the type of label used and the average percentage of fibroblasts present in non-tumor areas, tumor and peritumoral (±SD) which were expressing the marker shown in each of the tumor types developed from of the different cell lines used. This process was realized in mice treated with non-peptide antagonists of NK1 receptor and in untreated animals (control).

[9] = system: leukocyte cells (mono and polymorphonuclear) in co-culture with cells isolated from primary human tumors; assay: Marker expression (IHC) in leukocytes co-cultured with primary human tumor cells (colon, pancreatic, lung carcinoma, glioma, melanoma); assay type: cell-based; conditions: SP 1 μM + antagonist 1 μM;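 note: tumor cells and leukocytes came from the same patients, co-culture contents were paraffin-embedded for immunohistochemistry with antibodies to TGF-β2 or NF-kB, leukocytes cultured alone served as control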
Description: To check that the interaction of the human primary tumor cells with cells of the immune/inflammatory (mono and polymorphonuclear leukocytes) cells, stimulates the secretion of substances of importance for survival and tumor progression, cultures were carried out using sets of immune cells/inflammatory (mono and polymorphonuclear leukocytes) with tumor cells obtained directly from primary human tumors of the same patients.
The same method described in Example 7 and 9 was used to obtain tumor cells from primary human tumors. Similarly cultured immune cells/inflammatory (mono and polymorphonuclear leukocytes) were used as control and secondly, cultured tumor cells isolated from patients in the presence of immune cells/inflammatory (mono and polymorphonuclear leukocytes).
Then, paraffin blocks were prepared with the contents of each of the groups mentioned previously for expression studies using immunohistochemistry. On this occasion, in order to identify the secretion of substances with importance for the survival and progression of tumor the following markers were analyzed: TGF-β2 (SAB4502956) and NF-kB (SAB4501992) using specific antibodies against them. All antibodies used were rabbit polyclonal antibodies obtained from Sigma Aldrich and were used at a concentration of 1/1000. Immunohistochemical techniques were performed and evaluated as described in previous examples.

[10] = co-culture with cells isolated from colon carcinoma
[11] = co-culture with cells isolated from glioma
[12] = co-culture with cells isolated from lung carcinoma
[13] = co-culture with cells isolated from melanoma
[14] = co-culture with cells isolated from pancreatic carcinoma

CC(=O)N1CCN([C@H]2CCN(C(=O)N(C)[C@H](C)c3cc(C(F)(F)F)cc(C(F)(F)F)c3)[C@@H](c3ccc(F)cc3C)C2)CC1 [Casopitant]
0%: PHF cells expressing MMP-3 [1] | PHF cells expressing MMP-7 [1] | PHF cells expressing MMP-9 [1] | PHF cells expressing MMP-11 [1] | PHF cells expressing MMP-13 [1] | PHF cells expressing MMP-14 [1] | PHF cells expressing SPARC [1] | PHF cells expressing TGFα [1] | PHF cells expressing TGFβ 1 [1] | PHF cells expressing TGFβ 2 [1] | PHF cells expressing TGFβ 3 [1] | mononuclear cells expressing NF-kB (mononuclear cells) | mononuclear cells expressing TGF-β (mononuclear cells) | PHF cells expressing MMP-3 [2] | PHF cells expressing MMP-7 [2] | PHF cells expressing MMP-9 [2] | PHF cells expressing MMP-11 [2] | PHF cells expressing MMP-13 [2] | PHF cells expressing MMP-14 [2] | PHF cells expressing SPARC [2] | PHF cells expressing TGF-α [2] | PHF cells expressing TGF-β1 [2] | PHF cells expressing TGF-β2 [2] | PHF cells expressing TGF-β3 [2] | PHF cells expressing MMP-3 [3] | PHF cells expressing MMP-7 [3] | PHF cells expressing MMP-9 [3] | PHF cells expressing MMP-11 [3] | PHF cells expressing MMP-13 [3] | PHF cells expressing MMP-14 [3] | PHF cells expressing SPARC [3] | PHF cells expressing TGF-α [3] | PHF cells expressing TGF-β1 [3] | PHF cells expressing TGF-β2 [3] | PHF cells expressing TGF-β3 [3] | PHF cells expressing MMP-3 [4] | PHF cells expressing MMP-7 [4] | PHF cells expressing MMP-9 [4] | PHF cells expressing MMP-13 [4] | PHF cells expressing MMP-14 [4] | PHF cells expressing SPARC [4] | PHF cells expressing TGF-α [4] | PHF cells expressing TGF-β1 [4] | PHF cells expressing TGF-β2 [4] | PHF cells expressing TGF-β3 [4] | PHF cells expressing MMP-11 [5] | cells expressing MMP-3 [6] | cells expressing MMP-7 [6] | cells expressing MMP-9 [6] | cells expressing MMP-11 [6] | cells expressing MMP-13 [6] | cells expressing MMP-14 [6] | cells expressing SPARC [6] | cells expressing TGF-α [6] | cells expressing TGF-β1 [6] | cells expressing TGF-β2 [6] | cells expressing TGF-β3 [6] | cells expressing MMP-3 [7] | cells expressing MMP-7 [7] | cells expressing MMP-9 [7] | cells expressing MMP-11 [7] | cells expressing MMP-13 [7] | cells expressing MMP-14 [7] | cells expressing SPARC [7] | cells expressing TGF-α [7] | cells expressing TGF-β1 [7] | cells expressing TGF-β2 [7] | cells expressing TGF-β3 [7] | fibroblasts expressing MMP-7 [8] | fibroblasts expressing MMP-11 [8] | fibroblasts expressing MMP-14 [8] | fibroblasts expressing TGF-α [8] | fibroblasts expressing TGF-β 1 [8] | fibroblasts expressing TGF-β 2 [8] | fibroblasts expressing TGF-β 3 [8] | Percentage of mononuclear leukocytes cells which expressed NF-kB [9, 10] | Percentage of mononuclear leukocytes cells which expressed TGF-β [9, 10] | Percentage of polymorphonuclear leukocytes cells which expressed NF-kB [9, 10] | Percentage of polymorphonuclear leukocytes cells which expressed TGF-β [9, 10] | Percentage of mononuclear leukocytes cells expressing NF-kB [9, 11] | Percentage of mononuclear leukocytes cells expressing TGF-β [9, 11] | Percentage of polymorphonuclear leukocytes cells expressing NF-kB [9, 11] | Percentage of polymorphonuclear leukocytes cells expressing TGF-β [9, 11] | Percentage of mononuclear leukocytes cells which expressed NF-kB [9, 12] | Percentage of mononuclear leukocytes cells which expressed TGF-β [9, 12] | Percentage of polymorphonuclear leukocytes cells which expressed NF-kB [9, 12] | Percentage of polymorphonuclear leukocytes cells which expressed TGF-β [9, 12] | Percentage of mononuclear leukocytes cells which expressed NF-kB [9, 13] | Percentage of mononuclear leukocytes cells which expressed TGF-β [9, 13] | Percentage of polymorphonuclear leukocytes cells which expressed NF-kB [9, 13] | Percentage of polymorphonuclear leukocytes cells which expressed TGF-β [9, 13] | Percentage of mononuclear leukocytes cells which expressed NF-kB [9, 14] | Percentage of mononuclear leukocytes cells which expressed TGF-β [9, 14] | Percentage of polymorphonuclear leukocytes cells which expressed NF-kB [9, 14] | Percentage of polymorphonuclear leukocytes cells which expressed TGF-β [9, 14]
